Results on 86 compounds are retold here after a melting point compilation (Tetko et al.; mined from patent text by program, amines drawn as free bases though some values may be those of a salt).

By melting point is commonly meant the temperature of the solid-liquid transition. `Cc1ccc(Sc2cncc3sc(C(N)=S)cc23)cc1` yielded a melting point of 181 to 183 °C. With `O=C1[C@H]2CCC[C@H]2Nc2ccccc2N1Cc1ccc([N+](=O)[O-])cc1` (relative stereo), the melting point lay in the range of 154 to 155 °C. The value for `CCNC(=O)CCC1CCN(Cc2cnc3cc(NC(=O)c4ccc(-c5ccc(F)cc5)cc4)c(C)cc3c2)CC1` was 227 to 230 °C; that for `CCOC(=O)Cc1ccnc2c(NC(=O)c3c(Cl)cccc3Cl)cccc12` was 150 to 152 °C; that for `Cc1cc(C)cc(Sc2c(C(C)C)c(=O)[nH]c(=O)n2CCC2C=CCC2)c1` (stereo unspecified) was 138 to 140 °C.

On to `CCOC(=O)c1c(Cn2cnnc2)nc2sc(C)c(C)c2c1-c1ccc(Cl)cc1`, for which the melting point fell in the range of 138 to 139 °C. As to `COc1cc2nc(=O)n3[nH]cnc3c2cc1OC`, the melting point fell in the range of 320 to 325 °C.

Consider `CN1Cc2c(-c3nc(CN)no3)ncn2-c2ccccc2C1=O`, for which the melting point lay in the range of 183 to 185 °C. With `CCOC(=O)C1=C(COCc2cc(=O)n(C)c(C)n2)NC(C)=C(C(=O)OC)C1c1cccc(Cl)c1Cl` (stereo unspecified) the figure was 153 to 158 °C; with `NS(=O)(=O)NC(c1ccccc1)P(=O)(Oc1ccccc1)Oc1ccccc1` (stereo unspecified), 171 to 174 °C; with `C=Cc1cc(C(C)(C)C)c(O)c(C(C)(C)C)c1`, 36 to 39 °C.

`N#CC1=C(c2ccccc2)Nc2n[nH]cc2C1c1cccc2ccccc12` (stereo unspecified) gave a melting point of 174 °C. The value for `COCc1c(C(C)=O)ncc2c1c1cc(OCc3ccccc3)ccc1n2S(=O)(=O)c1ccc(C)cc1` was 173 to 175 °C; that for `CCOC(=O)/C=C/c1c(-c2ccccc2)c2ccccc2c(=O)n1C` was 163 to 165 °C. The compound `CO[C@]1(c2csc(S(=O)(=O)c3ccc4c(c3)CC/C4=N\O)c2)CCO[C@@H]1C` (racemic) gave a melting point of 170 to 172 °C.

As to `COc1ccc(CC([N+](=O)[O-])C2(CCCCc3ccc(C)cc3)OCCO2)cc1OC` (stereo unspecified), the melting point fell in the range of 89 to 91 °C. With `CCCCc1nc2c(N)nc3ccccc3c2n1CCCC(C)=O` the figure was 173 to 176 °C. For the compound `CCCc1c(O)c(C(C)=O)cc(Cl)c1OCCCCCOc1c(C(C)=O)ccc(OCC(=O)O)c1CCC`, the melting point was in the range of 77 to 80 °C. The value for `O=CN1CCC(C(=O)O)=Cc2cc(Br)ccc21` was 248 to 250 °C; that for `COC(=O)c1ccsc1N/C=C(\C#N)C(=O)OC(C)(C)C` was 154 to 157 °C; that for `Cc1ccc(S(=O)(=O)Nc2onc(C)c2Br)cc1` was 169 to 172 °C.

`CC(C)(C)OC(=O)[C@@H]1CCC(=O)N1Cc1ccccc1` had a melting point of 59 to 63 °C.

In turn, `O=c1[nH]c(N[N+](=O)[O-])ncc1Cc1cccnc1` came in with a melting point of 214 to 216 °C. With `CCCc1ccccc1Sc1c(O)cc(-c2ccccc2)oc1=O` the figure was 158 to 160 °C; with `N=C(N)NC(=O)c1cc(-c2cccc(N)c2)nc2ccccc12`, 209 to 210 °C; with `CCOC(=O)c1cn(-c2nccs2)c2nc(N3CCC(NC(=O)[C@H](C)NC(=O)OC(C)(C)C)C3)ccc2c1=O` (stereo partly specified), 138 to 140 °C. Consider `CCOC(=O)c1ccc(OCCCN2C(=O)c3ccccc3C2=O)cc1`, for which the melting point was 106 to 108 °C.

Turning to `CSc1nc(N2CCc3ccccc3CC2)c(C#N)c(=O)[nH]1`, the melting point was above 250 °C. The value for `O=C(Nc1nccs1)c1nc(-c2ccc(N3CCCCCC3)cc2)[nH]c1-c1ccc(Cl)cc1` was 246 to 247 °C; that for `Cc1nc(-c2ccc(C#N)cc2)sc1C(=O)N(CCO)[C@H](C)[C@](O)(Cn1cncn1)c1ccc(F)cc1F` was 113 to 119 °C; that for `CC(C)(C)c1cc(C(=NO)c2ccccc2)cc(C(C)(C)C)c1O` was 151 °C.

Regarding `Cc1noc(-c2ncn3c2CN(C)C(=O)c2c(Cl)cccc2-3)n1`, the melting point lay in the range of 212 to 213 °C. The value for `CCCCCC(=O)N1c2cscc2C(=O)N(C)c2ccccc21` was 76 to 77 °C; that for `CCCC1=Cc2c(c(C)c(C)c3oc(C(=O)O)cc23)C1=O` was 242 °C; that for `COc1cc(NC(=O)Nc2ccc(N3CCN(C(=O)Nc4ccc(OCCO)cc4C(F)(F)F)CC3)cc2)cc(OC)c1` was 209 to 210 °C. The value for `CCCCNCCCNCCCCCCCCNCCCNCCCC` was above 300 °C; that for `O=c1c2ccc(Cl)cc2n(Cc2ccccc2)c(=O)n1S(=O)(=O)c1ccc(Cl)cc1` was 242 to 244 °C; that for `Cc1cc(Oc2cc(C(F)(F)F)nn2C)nc(Cl)n1` was 65 °C. `CNc1ccc(/C=C/c2c(F)cccc2Cl)cc1` gave a melting point of 43 to 45 °C. With `Cc1nnc(-c2ccc3occ(-c4cnn(Cc5ccccc5C#N)c4)c3c2)o1` the figure was 192 to 193 °C. Turning to `Cc1cc(C)c2c(c1)C(=O)C1(CCNCC1)CC2`, the melting point is above 260 °C. The value for `O=C(O)c1cc(N2C(=O)C(c3ccccc3)=C(c3ccccc3)C2=O)ccc1O` was 249 to 250 °C. Take `NNC1=NCc2c[nH]c3cccc1c23`: the melting point lay within 188 to 189 °C. The value for `O=C(NCCc1c[nH]c2ccc(F)cc12)OCc1ccccc1` was 104 to 105 °C; that for `N#Cc1cnn2c1N(C(=O)CN1CCC(c3ccccc3)CC1)CC=C2c1cc(Cl)ccc1Cl` was 199 to 200 °C; that for `CC=CCn1c(C)c(C)c2cnnc(OCc3ccc(F)cc3F)c21` was 93 to 95 °C. The value for `OCc1ccc(N(c2ccccc2)c2ccccc2)cc1` was 104 to 105 °C; that for `CN(C(=O)[C@@H](OP(c1ccccc1)c1ccccc1)C(C)(C)C)P(c1ccccc1)c1ccccc1` was 95 to 96 °C.

In turn, `CCNC(C)CN1CCc2c(c(=O)oc3cc(OC)ccc23)C1` (stereo unspecified) registered a melting point of 97 to 100 °C. As for `CCc1ccc(-n2c(-c3cccnc3)nc(SC)c(C#N)c2=O)cc1`, the melting point fell in the range of 207 to 209 °C. The value for `Oc1cc(-c2ccc(Cl)cc2F)n[nH]1` was 194 °C. With `Cc1cccc(NC(=O)NC2N=C(c3ccccc3)c3ccccc3N(Cc3cc(C)ccn3)C2=O)c1` (racemic) the figure was 212 to 213 °C. With `CCOC(=O)Cc1nn(CC(=O)Nc2cc(C(F)(F)F)ccc2Br)c(=O)c2ccccc12` the figure was 160 °C; with `CCCc1c2nc(C(=O)OC)cc(Br)c2cc2c(=O)cc(C(=O)OCC)oc12`, 177 to 178 °C. With `COc1nc(C)c(N2CCCn3c2nc2c(OC)ccc(C(OC(F)F)C(F)(F)F)c23)c(C)n1` (stereo unspecified), the melting point was in the range of 201 to 203 °C.

Compound `Nc1cc(N2CCCNCC2)nc(N)n1` returned a melting point of 62 to 72 °C. The value for `O=c1ccc2c(-n3cnc(Br)c3)nccc2[nH]1` was 278 to 280 °C; that for `O=C1CCCN(Cc2ccc([N+](=O)[O-])cc2Cl)c2ncccc21` was 162 °C.

In the case of `COC(=O)CCCC#Cc1cc(Cl)ccc1NS(=O)(=O)c1sc(NC(C)=O)nc1C`, the melting point lay in the range of 147 to 149 °C.

On to `Cc1nc(C)c(CCl)cc1CCl`, for which the melting point is 108 to 109 °C. With `OCc1cn(Cc2ccc(OCc3ccccc3)cc2)cc1-c1ccccc1` the figure was 122 to 123 °C. The value for `NS(=O)(=O)c1cccc(-c2cc(-c3nc(-c4ccc(C(F)(F)F)nc4)cc(C(F)F)n3)ccn2)c1` was 264 °C; that for `CCOC(=O)c1cnn(C)c1C(=O)Nc1ccn2nc(N3CCCC3)nc2c1` was 233 to 234 °C. Compound `COC(=O)c1ccc2cc(CCc3cc4c(C(=O)OC)cccc4o3)oc2c1` returned a melting point of 175 to 177 °C. With `O=C(O)Cc1ccc(SCCNC(=O)C2Cc3ccccc3N2S(=O)(=O)c2ccc(-c3cccc(C(F)(F)F)c3)cc2)c(Cl)c1` (stereo unspecified) the figure was 70 °C; with `C=C(c1ccccc1)c1cccc(NS(=O)(=O)C(F)(F)F)c1`, 55 to 59 °C; with `Cc1c(CCC(=O)O)cc(C(C)(C)C)c(O)c1C`, 191 to 193 °C.

Turning to `CCOCc1cc2cc(Cl)ccc2oc1=Nc1ccc(Br)cc1`, the melting point fell in the range of 119 to 121 °C.

`O=C(O)C1(N(Cc2noc(=O)[nH]2)S(=O)(=O)c2ccc(-c3ccc(Cl)cc3)cc2)CC1c1ccccc1` (stereo unspecified): the melting point was 168 to 172 °C. With `COc1ccc(S(=O)(=O)C2(C(=O)O)CCN(Cc3ccc(Cl)c(Cl)c3)CC2)cc1` the figure was 192 to 195 °C. The value for `Cc1cc(Cl)n(-c2ccc(Cl)cc2F)n1` was 95 to 97 °C; that for `CSc1ncc2c(n1)Nc1ccccc1-n1nnnc1-2` was 244 to 246 °C. With `CCCCC(CC)COC(=O)C(C#N)=Cc1ccc(-c2nc3ccccc3o2)cc1` (stereo unspecified) the figure was 84 to 85 °C; with `Nc1ccccc1-c1[nH]ncc1[N+](=O)[O-]`, 175 to 176 °C; with `COC(=O)[C@H](Cc1ccc(OC(C)=O)c(OC(C)=O)c1)NC(=O)CNC(=O)OCc1ccccc1`, 130 to 131 °C.

In the case of `CC(C)(C)Nc1nccc(C#Cc2ccc(F)cc2)n1`, the melting point is 97 to 99 °C. The compound `N#Cn1c(=O)c2ccccc2n(CCCCN2CCC(OC(c3ccccc3)c3ccccc3)CC2)c1=O` gave a melting point of 106 to 107 °C. With `CC1(C)C(=O)N(c2ccc(C#N)c(C(F)(F)F)c2)C(=O)N1CCCCCl` the figure was 80 to 81 °C; with `CNC(=S)Nc1cc(C(=O)OC)c(O)c2ncc(Cc3ccc(F)cc3)cc12`, 189 to 191 °C. The value for `CCOC(=O)CNCC1CC2c3cccc4[nH]cc(c34)CC2N(C)C1` (stereo unspecified) was 174 to 176 °C; that for `COc1ccc(-c2ccc(C=O)cc2)cc1` was 99 to 100 °C.

`CCCCCCCCCCCCCCCCCCOc1ccc(C(C)=O)cc1` came in with a melting point of 69 to 70 °C. The value for `Cc1nc2ccc(OC3SCC(O)C(O)C3O)cc2s1` (stereo unspecified) was 184 °C; that for `N#Cc1cc(NC(=O)c2cc3ccccc3s2)ccc1N1CCN(CCO)CC1` was 238 to 239 °C; that for `Cc1nc(-c2nc(-c3ccc(Cl)cc3)c(CCCCCO)o2)c[nH]1` was 94 to 95 °C.

In the case of `CN(Cc1ccccn1)C(=S)Nc1ccc(C#N)cc1`, the melting point came out at 171 °C.
